Legend:
Type in all cases: in vivo
Digitaria adscendens [1] = experiment: Test Example 2 upland soil treatment; details: Table 5, upland soil treatment, index 0-5
Procedure, shortened: (§1)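 Dose of 1 kg active ingredient per hectare, given as diluted wettable powder to the soil surface the day after sowing in upland soil (~1 cm cover). Effect rated 21 days on: 5 for ≥90%, 4 for 70–<90%, down to 0 for <10%.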

Setaria viridis [2] = experiment: Test Example 2 upland soil treatment; details: Table 5, upland soil treatment, index 0-5
Procedure, shortened: as §1

Chenopodium album [3] = experiment: Test Example 2 upland soil treatment; details: Table 5, upland soil treatment, index 0-5
Procedure, shortened: as §1

Stellaria media [4] = experiment: Test Example 2 upland soil treatment; details: Table 5, upland soil treatment, index 0-5
Procedure, shortened: as §1

Scirpus juncoides = experiment: Test Example 3 paddy field treatment; details: paddy field treatment, wettable powder, active ingredient 1 kg per hectare, 21st day after the dropping, index 0-5
Procedure, shortened: (§2)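 Scoring used a 0–5 scale of herbicidal effect or phytotoxicity, from <10% to ≥90%, taken 21 days after treatment. Treatment was 1 kg a.i./ha as diluted wettable powder dripped onto 4 cm-deep flooded pots sown with the weeds, 10 days after transplanting two-leaf Koshihikari rice.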

Ammannia multiflora = experiment: Test Example 3 paddy field treatment; details: paddy field treatment, wettable powder, active ingredient 1 kg per hectare, 21st day after the dropping, index 0-5
Procedure, shortened: as §2

Monochoria vaginalis = experiment: Test Example 3 paddy field treatment; details: paddy field treatment, wettable powder, active ingredient 1 kg per hectare, 21st day after the dropping, index 0-5
Procedure, shortened: as §2

Echinochloa crusgalli = experiment: Test Example 3 paddy field treatment; details: paddy field treatment, wettable powder, active ingredient 1 kg per hectare, 21st day after the dropping, index 0-5
Procedure, shortened: as §2

[5] = system: wheat (Triticum aestivum); experiment: Test Example 1 upland field foliage treatment, crop phytotoxicity; details: Table 4, upland field foliage treatment, index 0-5
Procedure, shortened: (§3)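 A leaf-surface application at an active-ingredient rate of 1 kg per hectare was made to 14-day-old plants in upland soil. Evaluation followed 21 days later using a six-grade scale, where grade 5 means at least 90% kill or phytotoxicity.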

soybean (Glycine max) [6] = experiment: as above; details: Table 4, upland field foliage treatment, index 0-5
Procedure, shortened: as §3

[7] = system: wheat (Triticum aestivum); experiment: Test Example 2 upland soil treatment, crop phytotoxicity; details: Table 5, upland soil treatment, index 0-5
Procedure, shortened: as §1

soybean (Glycine max) [8] = experiment: as above; details: Table 5, upland soil treatment, index 0-5
Procedure, shortened: as §1

Rice (Oryza sativa) = experiment: Test Example 3 paddy field treatment, crop phytotoxicity; details: paddy field treatment, transplanted rice Koshihikari, wettable powder, active ingredient 1 kg per hectare, 21st day after the dropping, index 0-5
Procedure, shortened: as §2

Digitaria adscendens [9] = experiment: Test Example 1 upland field foliage treatment; details: Table 4, upland field foliage treatment, index 0-5
Procedure, shortened: as §3

Setaria viridis [10] = experiment: Test Example 1 upland field foliage treatment; details: Table 4, upland field foliage treatment, index 0-5
Procedure, shortened: as §3

Chenopodium album [11] = experiment: Test Example 1 upland field foliage treatment; details: Table 4, upland field foliage treatment, index 0-5
Procedure, shortened: as §3

Stellaria media [12] = experiment: Test Example 1 upland field foliage treatment; details: Table 4, upland field foliage treatment, index 0-5
Procedure, shortened: as §3

Row | SMILES | Herbicidal activity DA: Digitaria adscendens (Digitaria adscendens [1]) | Herbicidal activity SV: Setaria viridis (Setaria viridis [2]) | Herbicidal activity CA: Chenopodium album (Chenopodium album [3]) | Herbicidal activity SM: Stellaria media (Stellaria media [4]) | Herbicidal activity SJ (Scirpus juncoides) | Herbicidal activity AM (Ammannia multiflora) | Herbicidal activity MV (Monochoria vaginalis) | Herbicidal activity EC (Echinochloa crusgalli) | Herbicidal activity (phytotoxicity) TA: Wheat (Triticum aestivum) [5] | Herbicidal activity (phytotoxicity) GM: Soybean (Glycine max) (soybean (Glycine max) [6]) | Herbicidal activity (phytotoxicity) TA: Wheat (Triticum aestivum) [7] | Herbicidal activity (phytotoxicity) GM: Soybean (Glycine max) (soybean (Glycine max) [8]) | Herbicidal activity OS (phytotoxicity to rice) (Rice (Oryza sativa)) | Herbicidal activity DA: Digitaria adscendens (Digitaria adscendens [9]) | Herbicidal activity SV: Setaria viridis (Setaria viridis [10]) | Herbicidal activity CA: Chenopodium album (Chenopodium album [11]) | Herbicidal activity SM: Stellaria media (Stellaria media [12])
1 | CON=C(Cn1cc(C)c(-c2ccccc2)n1)C(=O)NC(C)C [Compound 20] | 4 (herbicidal effect of not less than 70% and less than 90%, or phytotoxicity of 70% or more and less than 90%) | 3 (herbicidal effect of not less than 50% and less than 70%, or phytotoxicity of 50% or more and less than 70%) | 3 (herbicidal effect of not less than 50% and less than 70%, or phytotoxicity of 50% or more and less than 70%) | 4 (herbicidal effect of not less than 70% and less than 90%, or phytotoxicity of 70% or more and less than 90%) | 4 (herbicidal effect of not less than 70% and less than 90%, or phytotoxicity of 70% or more and less than 90%) | 4 (herbicidal effect of not less than 70% and less than 90%, or phytotoxicity of 70% or more and less than 90%) | 5 (herbicidal effect of not less than 90%, or phytotoxicity of 90% or more) | 5 (herbicidal effect of not less than 90%, or phytotoxicity of 90% or more) | 0 (herbicidal effect of not less than 0% and less than 10%, or phytotoxicity of 0% or more and less than 10%) | 0 (herbicidal effect of not less than 0% and less than 10%, or phytotoxicity of 0% or more and less than 10%) | 0 (herbicidal effect of not less than 0% and less than 10%, or phytotoxicity of 0% or more and less than 10%) | 0 (herbicidal effect of not less than 0% and less than 10%, or phytotoxicity of 0% or more and less than 10%) | 0 (herbicidal effect of not less than 0% and less than 10%, or phytotoxicity of 0% or more and less than 10%) | 3 (herbicidal effect of not less than 50% and less than 70%, or phytotoxicity of 50% or more and less than 70%) | 2 (herbicidal effect of not less than 30% and less than 50%, or phytotoxicity of 30% or more and less than 50%) | 5 (herbicidal effect of not less than 90%, or phytotoxicity of 90% or more) | 5 (herbicidal effect of not less than 90%, or phytotoxicity of 90% or more)
2 | CON=C(Cn1cc(C)c(-c2ccccc2)n1)C(=O)NC1CC1 [Compound 21, 2-methoxyimino-3-(phenyl-4-methyl-pyrazole)-1-yl-propanoic acid-N-cyclopropylamide] | 4 (herbicidal effect of not less than 70% and less than 90%, or phytotoxicity of 70% or more and less than 90%) | 4 (herbicidal effect of not less than 70% and less than 90%, or phytotoxicity of 70% or more and less than 90%) | 5 (herbicidal effect of not less than 90%, or phytotoxicity of 90% or more) | 5 (herbicidal effect of not less than 90%, or phytotoxicity of 90% or more) | 5 (herbicidal effect of not less than 90%, or phytotoxicity of 90% or more) | 5 (herbicidal effect of not less than 90%, or phytotoxicity of 90% or more) | 5 (herbicidal effect of not less than 90%, or phytotoxicity of 90% or more) | 5 (herbicidal effect of not less than 90%, or phytotoxicity of 90% or more) | 0 (herbicidal effect of not less than 0% and less than 10%, or phytotoxicity of 0% or more and less than 10%) | 0 (herbicidal effect of not less than 0% and less than 10%, or phytotoxicity of 0% or more and less than 10%) | 0 (herbicidal effect of not less than 0% and less than 10%, or phytotoxicity of 0% or more and less than 10%) | 0 (herbicidal effect of not less than 0% and less than 10%, or phytotoxicity of 0% or more and less than 10%) | 0 (herbicidal effect of not less than 0% and less than 10%, or phytotoxicity of 0% or more and less than 10%) | 5 (herbicidal effect of not less than 90%, or phytotoxicity of 90% or more) | 5 (herbicidal effect of not less than 90%, or phytotoxicity of 90% or more) | 5 (herbicidal effect of not less than 90%, or phytotoxicity of 90% or more) | 5 (herbicidal effect of not less than 90%, or phytotoxicity of 90% or more)
3 | CON=C(Cn1cc(C)c(-c2ccccc2)n1)C(=O)NC1CCCC1 [Compound 23] | 4 (herbicidal effect of not less than 70% and less than 90%, or phytotoxicity of 70% or more and less than 90%) | 4 (herbicidal effect of not less than 70% and less than 90%, or phytotoxicity of 70% or more and less than 90%) | 5 (herbicidal effect of not less than 90%, or phytotoxicity of 90% or more) | 4 (herbicidal effect of not less than 70% and less than 90%, or phytotoxicity of 70% or more and less than 90%) | 4 (herbicidal effect of not less than 70% and less than 90%, or phytotoxicity of 70% or more and less than 90%) | 5 (herbicidal effect of not less than 90%, or phytotoxicity of 90% or more) | 5 (herbicidal effect of not less than 90%, or phytotoxicity of 90% or more) | 4 (herbicidal effect of not less than 70% and less than 90%, or phytotoxicity of 70% or more and less than 90%) | 0 (herbicidal effect of not less than 0% and less than 10%, or phytotoxicity of 0% or more and less than 10%) | 0 (herbicidal effect of not less than 0% and less than 10%, or phytotoxicity of 0% or more and less than 10%) | 0 (herbicidal effect of not less than 0% and less than 10%, or phytotoxicity of 0% or more and less than 10%) | 0 (herbicidal effect of not less than 0% and less than 10%, or phytotoxicity of 0% or more and less than 10%) | 0 (herbicidal effect of not less than 0% and less than 10%, or phytotoxicity of 0% or more and less than 10%) | 3 (herbicidal effect of not less than 50% and less than 70%, or phytotoxicity of 50% or more and less than 70%) | 3 (herbicidal effect of not less than 50% and less than 70%, or phytotoxicity of 50% or more and less than 70%) | 4 (herbicidal effect of not less than 70% and less than 90%, or phytotoxicity of 70% or more and less than 90%) | 4 (herbicidal effect of not less than 70% and less than 90%, or phytotoxicity of 70% or more and less than 90%)
